Measurements taken from patent publication US9809582B2, “Aminoester derivatives” (CHIESI FARMACEUTICI S.p.A., priority 2015, dated 2017).
Read-outs that look alike come from different tables or passages of the source.

Key:
Human M3 receptor = Human M3 receptor (Homo sapiens (Human), UniProt P20309); assay: M3 receptor radioligand binding assay
Description: M3 Receptor Radioligand Binding Assay:
The assay is carried out in 96-well polypropylene plates in a volume of 250 μl. […] The final assay concentration of DMSO is 0.5% (v/v). The plates are sealed and incubated for 2 h at room temperature on an orbital shaker (slow speed). Membranes are harvested onto 96-well unifilter GF/C filter plates pre-treated with 0.5% polyethyleneimine (v/v), using a filter manifold, washed four times with […] of assay buffer. The plates are dried before addition of 50 μl of microscint-0, sealed then read in a Trilux Microbeta scintillation counter. IC50 values are determined from competition curves using a non-linear curve fitting program. Ki values are calculated from IC50 values by the Cheng and Prusoff equation.

Human recombinant PDE4B2 = Human recombinant PDE4B2 (Homo sapiens (Human), UniProt Q07343); assay: PDE4B2 HTRF assay; format: biochemical
Sequence of Human recombinant PDE4B2 (Q07343 other isoform, or with tags, fused parts or gaps): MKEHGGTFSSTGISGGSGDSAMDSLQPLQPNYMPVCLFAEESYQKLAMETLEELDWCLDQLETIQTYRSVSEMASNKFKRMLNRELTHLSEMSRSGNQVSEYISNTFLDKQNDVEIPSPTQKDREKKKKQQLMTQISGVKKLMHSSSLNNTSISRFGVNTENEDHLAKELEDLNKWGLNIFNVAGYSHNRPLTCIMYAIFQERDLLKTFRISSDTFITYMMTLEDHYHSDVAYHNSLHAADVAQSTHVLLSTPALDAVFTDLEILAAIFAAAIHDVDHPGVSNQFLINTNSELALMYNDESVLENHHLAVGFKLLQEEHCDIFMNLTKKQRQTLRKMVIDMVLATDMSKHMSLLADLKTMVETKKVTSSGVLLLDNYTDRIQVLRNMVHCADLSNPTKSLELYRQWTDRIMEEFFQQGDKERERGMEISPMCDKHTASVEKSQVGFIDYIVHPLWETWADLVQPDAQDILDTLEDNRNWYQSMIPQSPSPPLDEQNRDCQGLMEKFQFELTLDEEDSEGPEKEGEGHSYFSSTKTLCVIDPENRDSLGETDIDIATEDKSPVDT
Description: PDE4B2 activity is detected using the LANCE Ultra cAMP homogeneous time resolved fluorescence resonance energy transfer (TR-FRET) assay from Perkin Elmer. The assay is based on the competition between the europium (Eu) chelate-labeled cAMP tracer and sample cAMP for binding sites on cAMP-specific monoclonal antibodies (mAb) labelled with the ULight™ dye. The assay is carried out in 384-well low volume plates in a volume of 10 μl. Human recombinant PDE4B2 (80 pM) is incubated for 2 h with 3 nM cAMP in buffer containing 1×HBSS, 5 mM HEPES, 3 mM MgCl2, 0.1% BSA, pH 7.4 with or without test compounds. The enzymatic reactions are efficiently stopped by the addition of 500 μM IBMX present in the combined Stop/Detection buffer containing europium (Eu) chelate-labeled cAMP tracer and cAMP-specific monoclonal antibodies (mAb) labelled with the ULight™ dye. […] IC50 values are determined from competition curves using a non-linear curve fitting program.

[1] = cited from earlier work
[2] = M3 Receptor radioligand binding assay, read-out: M3 IC50 Activity
[3] = PDE4B2 HTRF assay, read-out: PDE4B2 IC50 Activity
[4] = patients with severe disease, frequent exacerbations and mucus hypersecretion

Sequence of Human M3 receptor (P20309 whole entry): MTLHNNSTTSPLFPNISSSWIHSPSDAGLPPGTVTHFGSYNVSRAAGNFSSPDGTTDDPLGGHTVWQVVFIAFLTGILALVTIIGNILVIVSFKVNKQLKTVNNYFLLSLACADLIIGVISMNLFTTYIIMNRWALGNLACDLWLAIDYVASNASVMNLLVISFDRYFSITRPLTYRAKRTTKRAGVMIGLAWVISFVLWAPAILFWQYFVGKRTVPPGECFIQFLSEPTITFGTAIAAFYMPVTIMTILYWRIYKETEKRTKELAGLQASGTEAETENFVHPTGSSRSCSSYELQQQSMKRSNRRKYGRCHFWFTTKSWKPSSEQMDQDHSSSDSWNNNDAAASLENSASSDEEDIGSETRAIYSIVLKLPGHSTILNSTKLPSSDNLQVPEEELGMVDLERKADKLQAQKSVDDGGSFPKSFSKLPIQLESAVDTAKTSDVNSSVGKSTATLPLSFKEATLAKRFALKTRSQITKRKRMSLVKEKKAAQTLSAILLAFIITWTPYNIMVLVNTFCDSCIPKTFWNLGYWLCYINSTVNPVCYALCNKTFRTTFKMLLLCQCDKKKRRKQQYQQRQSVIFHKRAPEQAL

SMILES	IC50 (Human M3 receptor; M3 IC50 Activity)	IC50 (Human recombinant PDE4B2)	further results
COc1ccc([C@H](Cc2c(Cl)c[n+]([O-])cc2Cl)OC(=O)c2ccc(CN3CC(C(=O)O[C@@H]4CCN(C)C4)(c4ccccc4)C3)s2)cc1OC [Example 16, [(3R)-1-methylpyrrolidin-3-yl] 1-[[5-[(1S)-2-(3,5-dichloro-1-oxido-pyridin-1-ium-4-yl)-1-(3,4-dimethoxyphenyl)ethoxy]carbonyl-2-thienyl]methyl]-3-phenyl-azetidine-3-carboxylate]			IC50 (Human M3 receptor; [2]): 0.001 to 0.01 µM; IC50 (Human recombinant PDE4B2; [3]): 0.001 to 0.01 µM
COc1ccc([C@H](Cc2c(Cl)c[n+]([O-])cc2Cl)OC(=O)c2ccc(CNCC(C(=O)O[C@H]3CN4CCC3CC4)c3ccccc3)s2)cc1OC (single isomer, unassigned) [Example 21]	0.001 to 0.01 µM		IC50 (Human recombinant PDE4B2; read-out: PDE4B2 IC50 Activity): 0.001 to 0.01 µM
COc1ccc([C@H](Cc2c(Cl)c[n+]([O-])cc2Cl)OC(=O)c2ccc(CNC3CC(C(=O)OC4CCN(C)CC4)(c4ccccc4)C3)s2)cc1OC (single isomer, unassigned) [Example 34]			IC50 (Human M3 receptor; [2]): 0.01 to 0.1 µM; IC50 (Human recombinant PDE4B2; [3]): 0.001 to 0.01 µM
COc1ccc([C@H](Cc2c(Cl)c[n+]([O-])cc2Cl)OC(=O)c2ccc(CN3CCC(C(=O)O[C@H]4CN5CCC4CC5)(c4ccccc4)CC3)cc2)cc1OC [Example 11, [(3R)-quinuclidin-3-yl]-1-[[4-[(1S)-2-(3,5-dichloro-1-oxido-pyridin-1-ium-4-yl)-1-(3,4-dimethoxyphenyl)ethoxy]-carbonylphenyl]methyl]-4-phenyl-piperidine-4-carboxylate]	0.01 to 0.1 µM	0.001 to 0.01 µM	
COc1ccc([C@H](Cc2c(Cl)c[n+]([O-])cc2Cl)OC(=O)c2ccc(CNCC(C(=O)O[C@H]3CN4CCC3CC4)c3ccccc3)cc2)cc1OC (stereo partly drawn) [Example 2, [(1S)-2-(3,5-dichloro-1-oxido-pyridin-1-ium-4-yl)-1-(3,4-dimethoxyphenyl)ethyl] 4-[[[3-oxo-2-phenyl-3-[(3R)-quinuclidin-3-yl]oxy-propyl]amino]methyl]benzoate]	0.001 to 0.01 µM	0.001 to 0.01 µM	
COc1ccc([C@H](Cc2c(Cl)c[n+]([O-])cc2Cl)OC(=O)c2ccc(CCN3CCC(C(=O)O[C@H]4CN5CCC4CC5)(c4ccccc4)CC3)cc2)cc1OC [Example 12, [(3R)-quinuclidin-3-yl]-1-[2-[4-[(1S)-2-(3,5-dichloro-1-oxido-pyridin-1-ium-4-yl)-1-(3,4-dimethoxyphenyl)ethoxy]carbonylphenyl]ethyl]-4-phenyl-piperidine-4-carboxylate]	0.001 to 0.01 µM	0.001 to 0.01 µM	
COc1ccc([C@H](Cc2c(Cl)c[n+]([O-])cc2Cl)OC(=O)c2ccc(CNCC(C(=O)O[C@H]3CN4CCC3CC4)c3ccccc3)s2)cc1OC (single isomer, unassigned) [Example 20]	< 0.001 µM	0.001 to 0.01 µM	
COc1ccc([C@H](Cc2c(Cl)c[n+]([O-])cc2Cl)OC(=O)c2ccc(CNC3CC(C(=O)OC4CCN(C)CC4)(c4ccccc4)C3)s2)cc1OC (single isomer, unassigned) [Example 35]			IC50 (Human M3 receptor; [2]): 0.001 to 0.01 µM; IC50 (Human recombinant PDE4B2; [3]): 0.001 to 0.01 µM
O=C(Nc1c(Cl)cncc1Cl)c1ccc(OC(F)F)c(OCC2CC2)c1 [roflumilast]			reduction of the numbers of neutrophils in sputum ([1]; COPD patients, oral, given over four weeks): 36%; improvement of FEV 1 [1, 4]: approximately 50 mL; reduction of exacerbation [1, 4]: about 15%
COc1ccc([C@H](Cc2c(Cl)c[n+]([O-])cc2Cl)OC(=O)c2ccc(CNCC(C)(C(=O)O[C@H]3CN4CCC3CC4)c3ccccc3)s2)cc1OC (stereo partly drawn) [Example 31, [(1S)-2-(3,5-dichloro-1-oxido-pyridin-1-ium-4-yl)-1-(3,4-dimethoxyphenyl)ethyl] 5-[[[2-methyl-3-oxo-2-phenyl-3-[(3R)-quinuclidin-3-yl]oxy-propyl]amino]methyl]thiophene-2-carboxylate]	0.01 to 0.1 µM	0.001 to 0.01 µM	
COc1ccc([C@H](Cc2c(Cl)c[n+]([O-])cc2Cl)OC(=O)c2ccc(CN(C)CC(C)(C(=O)O[C@H]3CN4CCC3CC4)c3ccccc3)s2)cc1OC (stereo partly drawn) [Example 10, [(1S)-2-(3,5-dichloro-1-oxido-pyridin-1-ium-4-yl)-1-(3,4-dimethoxyphenyl)ethyl]-5-[[methyl-[2-methyl-3-oxo-2-phenyl-3-[(3R)-quinuclidin-3-yl]oxy-propyl]amino]methyl]thiophene-2-carboxylate]	0.001 to 0.01 µM	0.001 to 0.01 µM	
